Assay results published in patent EP1147080B1 (Wyeth Holdings Corporation, priority 1999, dated 2000).
pIC50: −log10 of the molar value.

Experiments:
[1] = target: MMP-13 (Homo sapiens, UniProt P45452); assay: MMP-13 inhibition (thiopeptide or fluorescent peptide substrate); type: biochemical; conditions: read-out: MMP13; for inhibition at 1 µM: % at 1 um (specified in cell); for inhibition at 10 µM: % @ 10µM per footnote a
Source text: Alternatively, a fluorescent peptide substrate is used.

[2] = target: TNF-α converting enzyme (TACE) (Homo sapiens, UniProt P78536); assay: Test procedure for measuring TACE inhibition (fluorescent peptidyl substrate); type: biochemical; conditions: for IC50: IC50 (nM) per footnote a; for inhibition at 10 µM: % @ 10µM per footnote a, read-out: TACE IC50
TNF-α converting enzyme (TACE), sequence (P78536 215-824): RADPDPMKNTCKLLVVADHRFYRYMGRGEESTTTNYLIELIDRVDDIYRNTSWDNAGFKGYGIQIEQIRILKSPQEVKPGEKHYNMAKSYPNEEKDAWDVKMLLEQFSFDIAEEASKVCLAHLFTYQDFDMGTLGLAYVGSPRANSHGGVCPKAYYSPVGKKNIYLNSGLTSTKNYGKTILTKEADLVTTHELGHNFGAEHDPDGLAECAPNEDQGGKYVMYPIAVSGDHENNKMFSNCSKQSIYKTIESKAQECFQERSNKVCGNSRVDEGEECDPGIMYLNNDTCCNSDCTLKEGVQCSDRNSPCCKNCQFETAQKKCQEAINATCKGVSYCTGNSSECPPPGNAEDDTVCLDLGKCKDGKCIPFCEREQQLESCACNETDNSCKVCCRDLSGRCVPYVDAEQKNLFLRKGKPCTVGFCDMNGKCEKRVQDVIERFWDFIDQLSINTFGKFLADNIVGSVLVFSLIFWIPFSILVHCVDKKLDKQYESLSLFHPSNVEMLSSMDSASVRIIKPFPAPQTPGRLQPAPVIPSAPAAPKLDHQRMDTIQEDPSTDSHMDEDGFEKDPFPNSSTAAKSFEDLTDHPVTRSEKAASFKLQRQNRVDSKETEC

[3] = target: T1, MMP-1 (Homo sapiens, UniProt P03956); assay: MMP-1 inhibition (thiopeptide or fluorescent peptide substrate); conditions: read-out: MMP1
T1 sequence (P03956 100-469): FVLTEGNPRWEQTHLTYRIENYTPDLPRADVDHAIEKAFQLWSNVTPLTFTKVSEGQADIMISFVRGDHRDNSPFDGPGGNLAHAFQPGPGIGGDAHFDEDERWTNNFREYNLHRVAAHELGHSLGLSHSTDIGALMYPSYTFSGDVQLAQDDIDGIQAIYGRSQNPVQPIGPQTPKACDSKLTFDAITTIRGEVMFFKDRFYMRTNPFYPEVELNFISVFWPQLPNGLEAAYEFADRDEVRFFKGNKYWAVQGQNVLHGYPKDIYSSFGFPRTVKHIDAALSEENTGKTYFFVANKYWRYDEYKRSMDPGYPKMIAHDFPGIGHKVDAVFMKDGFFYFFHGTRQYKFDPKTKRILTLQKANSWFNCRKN
Experimental: The enzyme activity is measured by the rate of the color increase. The thiopeptide substrate is made up fresh as a 20 mM stock in 100% DMSO and the DTNB is dissolved in 100% DMSO as a 100 mM stock and stored in the dark at room temperature. Both the substrate and DTNB are diluted together to 1 mM with substrate buffer (50 mM HEPES pH 7.5, 5 mM CaCl2) before use. The stock of enzyme is diluted with buffer (50 mM HEPES, pH 7.5, 5 mM CaCl2, 0.02% Brij) to the desired final concentration.
Alternatively, a fluorescent peptide substrate is used. In this test procedure, the peptide substrate contains a fluorescent group and a quenching group. Upon cleavage of the substrate by an MMP, the fluorescence that is generated is quantitated on the fluorescence plate reader. The assay is run in HCBC assay buffer (50mM HEPES, pH 7.0, 5 mM Ca^+2, 0.02% Brij, 0.5% Cysteine), with human recombinant MMP-1, MMP-9, or MMP-13. The substrate is dissolved in methanol and stored frozen in 1 mM aliquots. For the assay, substrate and enzymes are diluted in HCBC buffer to the desired concentrations. Compounds are added to the 96 well plate containing enzyme and the reaction is started by the addition of substrate.
For either the thiopeptide or fluorescent peptide test procedures, the slope of the line is calculated and represents the reaction rate. […] The mean (x±sem) of the control rate is calculated and compared for statistical significance (p<0.05) with drug-treated rates using Dunnett's multiple comparison test.

[4] = system: THP-1 cells; assay: Human monocytic THP-1 cell differentiation assay for soluble proteins (THP soluble protein assay), LPS-stimulated, TNF-α ELISA; type: cell-based; conditions: Homo sapiens, THP-1; at 3 uM; percent change from vehicle positive control; read-out: TNFalpha at 3 uM) THP (percent change)
Source text: Mitogenic stimulation of THP-1 cells cause differentiation into macrophage like cells with concomitant secretion of tumor necrosis factor (TNF-a) and TNF receptor (TNF-R p75/80 and TNF-R p55/60) and Interleukin-8 (IL-8), among other proteins. In addition, non-stimulated THP-1 cells shed both the p75/80 and the p55/60 receptors over time. The release of membrane bound TNF-a and possibly TNF-R p75/80 and TNF-R p55/60, but not IL-8, is mediated by an enzyme called TNF-α converting enzyme or TACE.
THP-1 cells (from ATCC) are a human monocytic cell line which were obtained from the peripheral blood of a person with acute monocytic leukemia. They can be grown in culture and differentiated into macrophage like cells by stimulation with mitogens.
Each vial of cells are cultured for about two weeks prior to being used for an assay and then are used for only 4 to 6 weeks to screen compounds.
Cell exposure to DMSO was limited to 0.1 % final concentration. […] Compounds can be evaluated for their effect on basal (non-stimulated) shedding of the receptors by replacing the LPS with […] of THP-1 media. Plates are placed into an incubator set at 5% CO2 and at 37°C. After 4 hours of incubation, […] of tissue culture supernatant (TCS) is removed for use in an TNF-α ELISA. Following 24 hours of incubation, […] of TCS is removed and used for analysis in TNF-R p75/80, TNF-R p55/60 and IL-8 ELISAs.
In addition, at the 24 hours timepoint, and the cells for each treatment group are collected by resuspension in 500 µl/well of THP-1 media and transferred into a FACS tube. […] The samples are run on a Becton Dickinson FaxCaliber FLOW cytometry machine and the amount of dye taken up by each cell is measured in the high red wavelength (FL3). Only cells with compromised membranes (dead or dying) can take up PI. The percent of live cells is calculated by the number of cells not stained with PI, divided by the total number of cells in the sample. The viability values calculated for the drug treated groups were compared to the viability value calculated for the vehicle treated mitogen stimulated group ("vehicle positive control") to determine the "percent change from control". This "percent change from control" value is an indicator of drug toxicity.
The quantity of soluble TNF-α, TNF-R p75/80 and TNF-R p55/60 and IL-8 in the TCS of the THP-1 cell cultures are obtained with commercially available ELISAs from R&D Systems, by extrapolation from a standard curve generated with kit standards. The number of cells that either take up or exclude PI are measured by the FLOW cytometry machine and visualized by histograms using commercially available Cytologic software for each treatment group including all controls.
Biological variability in the magnitude of the response of THP-1 cell cultures requires that experiments be compared on the basis of percent change from "vehicle positive control" for each drug concentration. Percent change in each soluble protein evaluated from the "vehicle positive control" was calculated for each compound concentration with the following formula: % Change =(pg/ml (compound) - pg/ml (veh pos control))/(pg/ml (veh pos control) - pg/ml (veh neg control))x 100 [formula]
For the soluble protein (TNF-a, p75/80, p55/60, IL-8) studies under stimulated conditions, the mean pg/ml of duplicate wells were determined and the results expressed as percent change from "vehicle positive control". For the soluble protein (p75/80 and p55/60 receptors) studies under non-stimulated conditions, the mean pg/ml of duplicate wells were determined and the results expressed as percent change from […] utilizing the following formula: % Change =(pg/ml (compound neg control) - pg/ml (veh neg control))/(pg/ml (veh neg control))X 100 [formula]
IC50 values for each compound are calculated by non-linear regression analysis using customized software utilizing the JUMP statistical package.

Row | inhibition at 1 µM [1] [%] | IC50 ([2]; second table) [nM] | inhibition at 10 µM [3] [%] | inhibition at 10 µM [1] [%] | inhibition at 10 µM [2] [%] | pIC50 ([2]; second table) | SMILES | inhibition at 3 µM [4] [%]
1 | 21.6 | 223 | 30.5 |  |  |  | CC#CCOc1ccc([S+]([O-])C(C(=O)NO)c2ccc(Cl)cc2)cc1 (mixture of isomers) [Example 81, 2-{[4-(2-butynyloxy)phenyl]sulfinyl}-2-(4-chlorophenyl) N-hydroxyacetamide] | 6
2 |  | 60 | 24 | 51 |  |  | CC#CCOc1ccc([S+]([O-])[C@H](C(=O)NO)c2ccc(Br)cc2)cc1 (single isomer, unassigned) [Example 86] | -2
3 |  | 63 | 6 | 54 |  |  | CC#CCOc1ccc([S+]([O-])[C@@H](C(=O)NO)c2cccc(Br)c2)cc1 (single isomer, unassigned) [Example 104] | 4
4 |  | 106 | 9 | 32 |  |  | CC#CCOc1ccc([S+]([O-])[C@H](C(=O)NO)c2cccc(Br)c2)cc1 (single isomer, unassigned) [Example 105] | -4
5 |  | 133 | 9.4 | 36.4 |  |  | CC#CCOc1ccc(SC(C(=O)NO)c2cccc(Cl)c2)cc1 (stereo not drawn) [Example 83, 2-{[4-(2-butynyloxy)phenyl]sulfanyl}-2-(3-chlorophenyl)-N-hydroxyacetamide] | 0
6 | 23 |  | 10 |  |  |  | CC#CCOc1ccc(S(=O)(=O)C(C(=O)NO)c2cccc(Cl)c2)cc1 (stereo not drawn) [Example 84, 2-{[4-(2-butynyloxy)phenyl]sulfonyl}-2-(3-chlorophenyl)-N-hydroxyacetamide] | -7
7 |  | 391 | 6.8 | 30.5 |  |  | CC#CCOc1ccc(SC(C(=O)NO)c2ccc(Br)cc2)cc1 (stereo not drawn) [Example 85, 2-(4-bromophenyl)-2-{[4-(2-butynyloxy)phenyl]sulfanyl}-N-hydroxyacetamide] | -10
8 | 21 | 226 | 20 |  |  |  | CC#CCOc1ccc(S(=O)(=O)C(C(=O)NO)c2ccc(Br)cc2)cc1 (stereo not drawn) [Example 88, 2-(4-bromophenyl)-2-{[4-(2-butynyloxy)phenyl]sulfonyl}-N-hydroxyacetamide] | 4
9 |  | 617 | 0 | 5 |  |  | CC#CCOc1ccc(SC(C(=O)NO)c2ccc(-c3cccs3)cc2)cc1 (stereo not drawn) [Example 89, 2{[4-(2-butynyloxy)phenyl]sulfanyl}-N-hydroxy-2-[4-(2-thienyl)phenyl]acetamide] | 2
10 | 16 |  | 7 |  |  |  | CC#CCOc1ccc([S+]([O-])[C@@H](C(=O)NO)c2ccc(-c3cccs3)cc2)cc1 (stereo partly drawn) [Example 90, (2R)-2-{[4-(2-butynyloxy)phenyl]sulfinyl}-N-hydroxy-2-[4-(2-thienyl)phenyl] ethanamide] | 1
11 |  |  | 10 | 35 | 48 |  | CC#CCOc1ccc(S(=O)(=O)C(C(=O)NO)c2ccc(-c3cccs3)cc2)cc1 (stereo not drawn) [Example 91, 2-{[4-(2-butynyloxy)phenyl]sulfonyl}-N-hydroxy-2-[4-(2-thienyl)phenyl]acetamide] | 2
12 |  | 931 | 8 | 25 |  |  | CC#CCOc1ccc(SC(C(=O)NO)c2cccc3ccccc23)cc1 (stereo not drawn) [Example 92, 2-{[4-(2-Butynyloxy)phenyl]sulfanyl}-N-hydroxy-2-(1-naphthyl)acetamide] | -7
13 |  |  | 7 | 17 | 15.6 |  | CC#CCOc1ccc([S+]([O-])C(C(=O)NO)c2cccc3ccccc23)cc1 (stereo not drawn) [Example 93, 2-{[4-(2-Butynyloxy)phenyl]sulfinyl}-N-hydroxy-2-(1-naphthyl)acetamide] | -1
14 |  | 423 | 8 | 34 |  |  | CC#CCOc1ccc(S(=O)(=O)C(C(=O)NO)c2cccc3ccccc23)cc1 (stereo not drawn) [Example 94, 2-{[4-(2-Butynyloxy)phenyl]sulfonyl}-N-hydroxy-2-(1-naphthyl)acetamide] | -11
15 |  | 464 | 23 | 59 |  |  | CC#CCOc1ccc(SC(C(=O)NO)c2ccccc2OC)cc1 (stereo not drawn) [Example 98, 2-(2-methoxyphenyl)-2-{[4-(2-butynyloxy)phenyl]sulfanyl}-N-hydroxyacetamide] | 1
16 |  |  | 0 | 33.6 |  | 5.96 | CC#CCOc1ccc([S+]([O-])C(C(=O)NO)c2ccccc2OC)cc1 (stereo not drawn) [Example 99, 2-(2-methoxyphenyl)-2-{[4-(2-butynyloxy)phenyl]sulfinyl}-N-hydroxyacetamide] | 1
17 |  | 82 | 26 | 71 |  |  | CC#CCOc1ccc(S(=O)(=O)C(C(=O)NO)c2ccc(OCC)cc2)cc1 (stereo not drawn) [Example 102] | 10
18 |  | 65 | 0 | 56 |  |  | CC#CCOc1ccc(S(=O)(=O)C(C(=O)NO)c2cccc(Br)c2)cc1 (stereo not drawn) [Example 106, 2-{[4-(2-Butynyloxy)phenyl]sulfonyl}-2-(3-bromophenyl)-N-hydroxyacetamide] | -5
19 |  |  | 3.5 | 30.5 | 40.9 |  | CC#CCOc1ccc(SC(C(=O)NO)c2ccc3ccccc3c2)cc1 (stereo not drawn) [Example 114, 2-{[4-(2-Butynyloxy)phenyl]sulfanyl}-2-(2-naphthyl)-N-hydroxyacetamide] | 12
20 | 45.1 | 141 | 4.11 |  |  |  | CC#CCOc1ccc([S+]([O-])C(C(=O)NO)c2ccc3ccccc3c2)cc1 (stereo not drawn) [Example 115, 2-{[4-(2-butynyloxy)phenyl]sulfinyl}-2-(2-naphthyl)-N-hydroxyacetamide] | 11

Row | SMILES | inhibition at 1 µM [1] [%] | IC50 ([2]; second table) [nM] | inhibition at 10 µM [3] [%] | inhibition at 10 µM [1] [%] | inhibition at 10 µM [2] [%] | pIC50 ([2]; second table) | inhibition at 3 µM [4] [%]
21 | CC#CCOc1ccc(S(=O)(=O)C(C(=O)NO)C2CCOCC2)cc1 (stereo not drawn) [Example 122, 2-{[4-(2-Butynyloxy)phenyl]sulfonyl}-N-hydroxy-2-tetrahydro-2H-pyran-4-yl-acetamide] |  |  | 9 | 57 |  |  | 36
